The results in this text go back to patent publication US20140309210A1, “INDAZOLE COMPOUNDS, COMPOSITIONS AND METHODS OF USE THEREOF” (Genentech, Inc., priority 2011, published 2014).

Molecules are shown by their SMILES.

The first assay deals with T1, purified ITK (Invitrogen PV3875) (Homo sapiens, UniProt Q08881).
T1 construct: purchased Invitrogen PV3875
T1 sequence (Q08881 1-620): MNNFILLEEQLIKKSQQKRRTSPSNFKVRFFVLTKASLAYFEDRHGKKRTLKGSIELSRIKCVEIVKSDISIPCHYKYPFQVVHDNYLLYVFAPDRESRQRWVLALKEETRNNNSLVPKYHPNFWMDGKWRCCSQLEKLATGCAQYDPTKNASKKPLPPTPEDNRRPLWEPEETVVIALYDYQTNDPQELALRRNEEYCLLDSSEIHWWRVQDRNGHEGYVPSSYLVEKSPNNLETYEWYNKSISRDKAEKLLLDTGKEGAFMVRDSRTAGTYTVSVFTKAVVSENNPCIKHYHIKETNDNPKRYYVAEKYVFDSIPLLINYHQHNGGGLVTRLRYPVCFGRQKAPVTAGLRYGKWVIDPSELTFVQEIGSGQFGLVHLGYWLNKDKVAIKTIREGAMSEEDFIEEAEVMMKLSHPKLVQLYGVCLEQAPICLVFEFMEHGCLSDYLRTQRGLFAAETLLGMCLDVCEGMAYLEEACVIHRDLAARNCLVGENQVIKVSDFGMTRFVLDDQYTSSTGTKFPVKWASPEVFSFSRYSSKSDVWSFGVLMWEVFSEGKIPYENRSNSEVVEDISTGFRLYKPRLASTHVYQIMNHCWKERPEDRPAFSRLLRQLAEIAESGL
Put plainly: ITK peptide phosphorylation assay (Caliper LabChip or LCMS). It is filed as biochemical. The conditions noted are these: Table 2, Examples 1-140, class symbols. The protocol:
The ability of purified ITK (Invitrogen PV3875) to catalyze peptide phosphorylation is monitored using a Caliper LabChip 3000 microfluidic unit (Caliper assay) or by liquid chromatography-mass spectrometry (LCMS) using a Waters Acquity system (LCMS assay). […] Reactions are quenched by the addition of 2,2′,2″,2′″-(ethane-1,2-diyldinitrilo)tetraacetic acid (50 mM final). Non-phosphorylated substrate and phosphorylated product peptides are separated and quantified using a Caliper LabChip 3000 instrument. […] Reactions are quenched by the addition of trichloroacetic acid (5% v/v final). Non-phosphorylated substrate and phosphorylated product peptides are separated by ultra performance LC and detected by a coupled triple quadrupole MS device applying multiple reaction monitoring (MRM) for quantification. The area of the MRM-extracted mass signal is used to assess the inhibition by test compounds. Equilibrium dissociation constant (Ki) values for ITK inhibitors are calculated from plots of activity vs. inhibitor concentration using Morrison's quadratic equation that accounts for the potential of tight binding, and by also applying the conversion factor that accounts for competitive inhibition and the concentration of ATP used in the assay relative to its apparent Michaelis constant (Km,app).
For the compound `Nc1cc(Cn2cc(NC(=O)c3n[nH]c4cc(-c5cn[nH]c5)ccc34)cn2)ccn1` [Example 28, 6-(1H-Pyrazol-4-yl)-1H-indazole-3-carboxylic acid [1-(2-amino-pyridin-4-ylmethyl)-1H-pyrazol-4-yl]-amide], the Ki fell in the range of 1 to 100 nM.

`NC(=O)c1cccc(Cn2cc(NC(=O)c3n[nH]c4cc(-c5cn[nH]c5)ccc34)cn2)c1` [Example 29, 6-(1H-Pyrazol-4-yl)-1H-indazole-3-carboxylic acid [1-(3-carbamoyl-benzyl)-1H-pyrazol-4-yl]-amide] gave a Ki of 0.01 to 1 nM.

As to `NC(=O)c1cccc(Cn2cc(NC(=O)c3n[nH]c4cc(-c5cccnc5)ccc34)cn2)c1` [Example 31, N-[1-[(3-carbamoylphenyl)methyl]pyrazol-4-yl]-6-(3-pyridyl)-1H-indazole-3-carboxamide], the Ki is 1 to 100 nM.

For `Nc1cc(Cn2cc(NC(=O)c3n[nH]c4cc(-c5cccnc5)ccc34)cn2)ccn1` [Example 32, N-[1-[(2-amino-4-pyridyl)methyl]pyrazol-4-yl]-6-(3-pyridyl)-1H-indazole-3-carboxamide], the Ki was 1 to 100 nM.

With `CNC(=O)c1ccc(Cn2cc(NC(=O)c3n[nH]c4cc(-c5cccnc5)ccc34)cn2)o1` [Example 33, N-[1-[[5-(methylcarbamoyl)-2-furyl]methyl]pyrazol-4-yl]-6-(3-pyridyl)-1H-indazole-3-carboxamide], the Ki was 1 to 100 nM.

Turning to `O=C(Nc1cnn(Cc2cscn2)c1)c1n[nH]c2cc(-c3cccnc3)ccc12` [Example 34, 6-(3-pyridyl)-N-[1-(thiazol-4-ylmethyl)pyrazol-4-yl]-1H-indazole-3-carboxamide], the Ki lay in the range of 1 to 100 nM.

As for `O=C(O)c1ccc(Cn2cc(NC(=O)c3n[nH]c4cc(-c5cn[nH]c5)ccc34)cn2)o1` [Example 35, 5-(4-{[6-(1H-Pyrazol-4-yl)-1H-indazole-3-carbonyl]-amino}-pyrazol-1-ylmethyl)-furan-2-carboxylic acid], the Ki lay within 1 to 100 nM.

As to `O=C(Nc1cnn(Cc2cccc(-c3cccnc3)c2)c1)c1n[nH]c2cc(-c3cn[nH]c3)ccc12` [Example 36, 6-(1H-Pyrazol-4-yl)-1H-indazole-3-carboxylic acid [1-(3-pyridin-3-yl-benzyl)-1H-pyrazol-4-yl]-amide], the Ki was 0.01 to 1 nM.

On to `O=C(Nc1cnn(Cc2cccc(-c3ccncc3)c2)c1)c1n[nH]c2cc(-c3cn[nH]c3)ccc12` [Example 37, 6-(1H-Pyrazol-4-yl)-1H-indazole-3-carboxylic acid [1-(3-pyridin-4-yl-benzyl)-1H-pyrazol-4-yl]-amide], for which the Ki fell in the range of 0.01 to 1 nM.

`O=C(Nc1cnn(Cc2cccc(-c3ccccn3)c2)c1)c1n[nH]c2cc(-c3cn[nH]c3)ccc12` [Example 38, 6-(1H-Pyrazol-4-yl)-1H-indazole-3-carboxylic acid [1-(3-pyridin-2-yl-benzyl)-1H-pyrazol-4-yl]-amide] had a Ki of 1 to 100 nM.

`CN1CCN(c2cccc(Cn3cc(NC(=O)c4n[nH]c5cc(-c6cn[nH]c6)ccc45)cn3)c2)CC1` [Example 39, N-[1-[[3-(4-methylpiperazin-1-yl)phenyl]methyl]pyrazol-4-yl]-6-(1H-pyrazol-4-yl)-1H-indazole-3-carboxamide]: the Ki lay within 0.01 to 1 nM.

`O=C(Nc1cnn(Cc2cccc(N3CCOCC3)c2)c1)c1n[nH]c2cc(-c3cn[nH]c3)ccc12` [Example 40, N-[1-[(3-morpholinophenyl)methyl]pyrazol-4-yl]-6-(1H-pyrazol-4-yl)-1H-indazole-3-carboxamide]: the inhibition constant Ki was 0.01 to 1 nM.

Turning to `O=C(Nc1cnn(Cc2csc(N3CCOCC3)n2)c1)c1n[nH]c2cc(-c3cn[nH]c3)ccc12` [Example 41, N-[1-[(2-morpholinothiazol-4-yl)methyl]pyrazol-4-yl]-6-(1H-pyrazol-4-yl)-1H-indazole-3-carboxamide], the Ki lay in the range of 1 to 100 nM.

Take `CN1CCN(c2nc(Cn3cc(NC(=O)c4n[nH]c5cc(-c6cn[nH]c6)ccc45)cn3)cs2)CC1` [Example 42, N-[1-[[2-(4-methylpiperazin-1-yl)thiazol-4-yl]methyl]pyrazol-4-yl]-6-(1H-pyrazol-4-yl)-1H-indazole-3-carboxamide]: the Ki was in the range of 1 to 100 nM.

In turn, `O=C(Nc1cnn(Cc2cscn2)c1)c1n[nH]c2cc(-c3cc[nH]n3)ccc12` [Example 43, 6-(1H-Pyrazol-3-yl)-1H-indazole-3-carboxylic acid (1-thiazol-4-ylmethyl-1H-pyrazol-4-yl)-amide] returned a Ki of 1 to 100 nM.

Take `N#Cc1cncc(-c2ccc3c(C(=O)Nc4cnn(Cc5cscn5)c4)n[nH]c3c2)c1` [Example 44, 6-(5-Cyano-pyridin-3-yl)-1H-indazole-3-carboxylic acid (1-thiazol-4-ylmethyl-1H-pyrazol-4-yl)-amide]: the Ki lay in the range of 1 to 100 nM.

In turn, `Nc1ccc(-c2ccc3c(C(=O)Nc4cnn(Cc5cscn5)c4)n[nH]c3c2)cn1` [Example 45, 6-(6-Amino-pyridin-3-yl)-1H-indazole-3-carboxylic acid (1-thiazol-4-ylmethyl-1H-pyrazol-4-yl)-amide] displayed a Ki of 1 to 100 nM.

Compound `O=C(O)c1cccc(Cn2cc(NC(=O)c3n[nH]c4cc(-c5cn[nH]c5)ccc34)cn2)c1` [Example 46, 3-(4-{[6-(1H-Pyrazol-4-yl)-1H-indazole-3-carbonyl]-amino}-pyrazol-1-ylmethyl)-benzoic acid] registered an inhibition constant Ki of 0.01 to 1 nM.

`CC(C)(O)c1cccc(Cn2cc(NC(=O)c3n[nH]c4cc(-c5cn[nH]c5)ccc34)cn2)c1` [Example 47, 6-(1H-Pyrazol-4-yl)-1H-indazole-3-carboxylic acid {1-[3-(1-hydroxy-1-methyl-ethyl)-benzyl]-1H-pyrazol-4-yl}-amide] registered a Ki of 1 to 100 nM.

`O=C(Nc1cnn(Cc2cccc(-c3nn[nH]n3)c2)c1)c1n[nH]c2cc(-c3cn[nH]c3)ccc12` [Example 48, 6-(1H-Pyrazol-4-yl)-1H-indazole-3-carboxylic acid {1-[3-(2H-tetrazol-5-yl)-benzyl]-1H-pyrazol-4-yl}-amide] had a Ki of 0.01 to 1 nM.

Consider `O=C(Nc1cnn(Cc2ccncc2)c1)c1n[nH]c2ccccc12` [Example 52, N-(1-(pyridin-4-ylmethyl)-1H-pyrazol-4-yl)-1H-indazole-3-carboxamide], for which the Ki was 1 to 100 nM.

As for `Cc1ccc(Cn2cc(NC(=O)c3n[nH]c4ccccc34)cn2)cc1` [Example 53, N-(1-(4-methylbenzyl)-1H-pyrazol-4-yl)-1H-indazole-3-carboxamide], the Ki was in the range of 1 to 100 nM.

As to `O=C(Nc1cnn(Cc2cccnc2)c1)c1n[nH]c2ccccc12` [Example 54, N-(1-(pyridin-3-ylmethyl)-1H-pyrazol-4-yl)-1H-indazole-3-carboxamide], the Ki lay in the range of 1 to 100 nM.

Consider `Cc1cccc(Cn2cc(NC(=O)c3n[nH]c4ccccc34)cn2)c1` [Example 55, N-(1-(3-methylbenzyl)-1H-pyrazol-4-yl)-1H-indazole-3-carboxamide], for which the Ki lay within 1 to 100 nM.

For `Cc1ccccc1Cn1cc(NC(=O)c2n[nH]c3ccccc23)cn1` [Example 56, N-(1-(2-methylbenzyl)-1H-pyrazol-4-yl)-1H-indazole-3-carboxamide], the Ki was in the range of 1 to 100 nM.

The compound `O=C(Nc1cnn(Cc2cc(Cl)cc(Cl)c2)c1)c1n[nH]c2ccccc12` [Example 57, N-(1-(3,5-dichlorobenzyl)-1H-pyrazol-4-yl)-1H-indazole-3-carboxamide] returned a Ki of 1 to 100 nM.

`O=C(Nc1cnn(Cc2ccc(Cl)cc2)c1)c1n[nH]c2ccccc12` [Example 58, N-(1-(4-chlorobenzyl)-1H-pyrazol-4-yl)-1H-indazole-3-carboxamide] had a Ki of 1 to 100 nM.

On to `O=C(Nc1cnn(Cc2cccc(C(F)(F)F)c2)c1)c1n[nH]c2ccccc12` [Example 59, N-(1-(3-(trifluoromethyl)benzyl)-1H-pyrazol-4-yl)-1H-indazole-3-carboxamide], for which the Ki lay within 1 to 100 nM.

`O=C(Nc1cnn(Cc2ccccc2C(F)(F)F)c1)c1n[nH]c2ccccc12` [Example 60, N-(1-(2-(trifluoromethyl)benzyl)-1H-pyrazol-4-yl)-1H-indazole-3-carboxamide] showed a Ki above 100 nM.

`O=C(Nc1cnn(Cc2c(Cl)cccc2Cl)c1)c1n[nH]c2ccccc12` [Example 61, N-(1-(2,6-dichlorobenzyl)-1H-pyrazol-4-yl)-1H-indazole-3-carboxamide] registered a Ki above 100 nM.

As to `O=C(Nc1cnn(Cc2ccc(C(F)(F)F)cc2)c1)c1n[nH]c2ccccc12` [Example 62, N-(1-(4-(trifluoromethyl)benzyl)-1H-pyrazol-4-yl)-1H-indazole-3-carboxamide], the Ki is 1 to 100 nM.

Staying with this assay, now noted: Table 3, specific values for certain examples.
`O=C(Nc1cnn(Cc2cccnc2)c1)c1n[nH]c2ccccc12` [Example 54, N-(1-(pyridin-3-ylmethyl)-1H-pyrazol-4-yl)-1H-indazole-3-carboxamide] came in with a Ki of 53.2 nM.

Compound `O=C(Nc1cnn(Cc2ccc(Cl)cc2)c1)c1n[nH]c2ccccc12` [Example 58, N-(1-(4-chlorobenzyl)-1H-pyrazol-4-yl)-1H-indazole-3-carboxamide] yielded a Ki of 39.2 nM.

As a reminder, the Ki is the dissociation constant of the complex between target and ligand, obtained from inhibition or displacement. Low readings indicate higher affinity, high ones lower affinity.
